Measured values reported in BindingDB's records for doi:10.1097/00004424-198809001-00017 (Unit&Eacute, 1988).

Assays:
[1] = target: Histamine H3 receptor (Cavia porcellus, UniProt Q9JI35)
[2] = target: Hrh3 protein (Rattus norvegicus, UniProt Q5PPG3)
Hrh3 protein, sequence (Q5PPG3 whole entry): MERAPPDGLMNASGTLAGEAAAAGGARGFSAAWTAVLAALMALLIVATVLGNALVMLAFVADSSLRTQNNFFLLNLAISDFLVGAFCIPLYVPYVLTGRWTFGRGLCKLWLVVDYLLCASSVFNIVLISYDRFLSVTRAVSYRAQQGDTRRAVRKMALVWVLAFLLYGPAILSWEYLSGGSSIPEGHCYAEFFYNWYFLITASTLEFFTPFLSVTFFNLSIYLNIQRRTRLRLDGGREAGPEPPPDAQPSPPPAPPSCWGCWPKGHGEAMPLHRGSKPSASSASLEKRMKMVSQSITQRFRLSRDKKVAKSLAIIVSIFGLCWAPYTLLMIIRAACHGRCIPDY

Histamine H3 receptor, sequence (Q9JI35 whole entry): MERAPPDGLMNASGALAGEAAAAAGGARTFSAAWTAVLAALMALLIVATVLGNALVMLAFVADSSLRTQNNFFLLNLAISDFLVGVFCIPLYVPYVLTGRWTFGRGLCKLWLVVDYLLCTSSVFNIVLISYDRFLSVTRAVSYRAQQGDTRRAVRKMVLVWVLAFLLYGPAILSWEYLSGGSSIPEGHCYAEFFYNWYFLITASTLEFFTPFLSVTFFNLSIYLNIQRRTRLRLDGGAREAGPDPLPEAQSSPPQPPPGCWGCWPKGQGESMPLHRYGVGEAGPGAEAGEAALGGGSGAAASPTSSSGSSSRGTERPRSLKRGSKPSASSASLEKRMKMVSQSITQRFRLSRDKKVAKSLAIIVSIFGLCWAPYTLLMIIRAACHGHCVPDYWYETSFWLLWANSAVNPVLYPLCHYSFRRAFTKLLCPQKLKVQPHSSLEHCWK

SMILES	Ki [1]	Ki [2]
c1ncc(CCN2CCCC2)[nH]1 [4-[2-(1-Pyrrolidinyl)ethyl]-imidazole]	6 nM	
C[C@@H](N)Cc1c[nH]cn1	813 nM	
S=C(NC1CCCCC1)N1CCC(c2cnc[nH]2)CC1	2 nM	2.1 nM
NCCc1c[nH]cn1 [[3H]histamine]	100 nM	100 nM
C[C@H](N)Cc1c[nH]cn1 [CAS_75614-93-6]	52 nM	11 nM
